Results reported in patent US6136992A, “2-alkoxy estradiols and derivatives thereof” (The United States of America as represented by the …, priority 1998, dated 2000).
Counter-ions that a name gives are not always drawn. Like-named read-outs stand apart in the source and are kept apart here.

Key:
tubulin = assay: Inhibition of tubulin polymerization (turbidimetry at 350 nm); type: biochemical, bovine; details: for IC50: 26° C., 20 min, read-out: Inhibn of Tubulin Polymn IC50
Method: Four instruments were used, and two control reaction mixtures were present in each experiment. […] IC50 values were determined graphically. […]
Inhibition of tubulin polymerization was investigated using electrophoretically homogeneous tubulin from bovine brain.

[1] = system: HOP-62 non-small-cell lung cancer cells; assay: NCI in vitro anticancer screen, HOP-62 non-small-cell lung cancer; type: cell-based; details: Homo sapiens, HOP-62, read-out: cytotoxicity GI50, Lung HOP-62
Excerpt: (§1) The effects of the analogs on cancer cell growth was investigated in the National Cancer Institute (NCI) Developmental Therapeutics Program's in vitro panel of approximately 55 cell lines (Grever et al., Seminars in Oncology 19:622 (1992), Alley et al., Cancer Research 48:589 (1988) and Montes et al., J. National Cancer Institute 83:757 (1991)). Representative results are listed in Table 1 for HOP-62 non-small-cell lung cancer cells, HCT-116 colon cancer cells, SF-539 central nervous system (CNS) cancer cells, UACC-62 melanoma cells, OVCAR ovarian cancer cells, SN12-C renal cancer cells, DU-145 prostate cancer cells, and MDA-MB-435 breast cancer cells.
(§2) ^a The cytotoxicity GI50 values are the concentrations

[2] = system: HCT-116 colon cancer cells; assay: NCI in vitro anticancer screen, HCT-116 colon cancer; type: cell-based; details: Homo sapiens, HCT-116, read-out: cytotoxicity GI50, Colon HCT-116
Excerpt: as §1, §2

[3] = system: SF-539 central nervous system (CNS) cancer cells; assay: NCI in vitro anticancer screen, SF-539 CNS cancer; type: cell-based; details: Homo sapiens, read-out: cytotoxicity GI50, CNS SF-539
Excerpt: as §1, §2

[4] = system: OVCAR ovarian cancer cells; assay: NCI in vitro anticancer screen, OVCAR ovarian cancer; type: cell-based; details: Homo sapiens, read-out: cytotoxicity GI50, Ovarian OVCAR
Excerpt: as §1, §2

[5] = system: SN12-C renal cancer cells; assay: NCI in vitro anticancer screen, SN12-C renal cancer; type: cell-based; details: Homo sapiens, SN12C, read-out: cytotoxicity GI50, Renal SN12-C
Excerpt: as §1, §2

[6] = system: DU-145 prostate cancer cells; assay: NCI in vitro anticancer screen, DU-145 prostate cancer; type: cell-based; details: Homo sapiens, DU-145, read-out: cytotoxicity GI50, Prostate DU-145
Excerpt: as §1, §2

[7] = system: all human cancer cell lines (approximately 55); assay: NCI in vitro anticancer screen, all cell lines; type: cell-based
Excerpt: as §1
^b Mean graph midpoint for all human cancer cell lines (approximately

UACC-62 melanoma cells = assay: NCI in vitro anticancer screen, UACC-62 melanoma; type: cell-based; details: Homo sapiens, UACC-62, read-out: cytotoxicity GI50, Melanoma UACC-62
Excerpt: as §1, §2

[8] = system: MDA-MB-435 breast cancer cells; assay: NCI in vitro anticancer screen, MDA-MB-435 breast cancer; type: cell-based; details: Homo sapiens, MDA-MB-435, read-out: cytotoxicity GI50, Breast MDA-MB-435
Excerpt: The effects of the analogs on cancer cell growth was investigated in the National Cancer Institute (NCI) Developmental Therapeutics Program's in vitro panel of approximately 55 cell lines (Grever et al., Seminars in Oncology 19:622 (1992), Alley et al., Cancer Research 48:589 (1988) and Montes et al., J. National Cancer Institute 83:757 (1991)).

estrogen receptor = target: T1, estrogen receptor (Rattus norvegicus, UniProt P06211); assay: Estrogen binding affinity assay (comparative radiometric binding, rat uterine cytosol); details: for RBA (relative binding affinity): 0° C., estradiol = 100
T1 construct: from tissue; host or cells: rat uterine cytosol
T1 sequence (P06211 1-600): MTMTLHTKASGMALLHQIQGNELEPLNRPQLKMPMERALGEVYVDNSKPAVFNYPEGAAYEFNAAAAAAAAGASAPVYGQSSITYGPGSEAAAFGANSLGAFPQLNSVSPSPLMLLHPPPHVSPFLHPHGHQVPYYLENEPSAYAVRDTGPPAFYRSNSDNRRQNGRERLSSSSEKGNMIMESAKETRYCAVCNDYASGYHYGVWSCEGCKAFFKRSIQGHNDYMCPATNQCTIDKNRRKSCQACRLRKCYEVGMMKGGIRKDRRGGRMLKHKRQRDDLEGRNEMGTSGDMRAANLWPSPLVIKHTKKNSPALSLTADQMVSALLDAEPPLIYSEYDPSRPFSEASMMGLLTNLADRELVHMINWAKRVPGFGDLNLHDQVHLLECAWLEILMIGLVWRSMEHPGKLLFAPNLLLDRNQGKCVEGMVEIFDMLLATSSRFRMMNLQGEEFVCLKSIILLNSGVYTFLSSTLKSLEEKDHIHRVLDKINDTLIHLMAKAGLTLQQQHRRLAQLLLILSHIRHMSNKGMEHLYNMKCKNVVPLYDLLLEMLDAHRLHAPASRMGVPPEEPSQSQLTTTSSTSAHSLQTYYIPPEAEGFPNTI
Method: The assay of (11), (12) and (16) were conducted at 0° C. for 20 hours, while those for (1) and (2) were performed at 0° C. for 18 hours.

solid tumors = details: cited from earlier work
[9] = approximately 55 cell lines, read-out: MGM (mean graph midpoint for all human cancer cell lines), GI50
[10] = read-out: MGM (mean graph midpoint for all human cancer cell lines), GI50

SMILES	IC50 (tubulin) [µM]	GI50 [1] [µM]	GI50 [2] [µM]	GI50 [3] [µM]	GI50 [4] [µM]	GI50 [5] [µM]	GI50 [6] [µM]	GI50 [7, 9] [µM]	GI50 (UACC-62 melanoma cells) [µM]	GI50 [8] [µM]	GI50 [7, 10] [µM]	GI50 ([7]; read-out: GI50) [µM]	affinity for the estrogen receptor, in words (estrogen receptor)	RBA (relative binding affinity) (estrogen receptor; 20 hours)	inhibition of tubulin polymerization, relative activity in words (tubulin; comparison with 2-methoxy estradiol (1) or 2-ethoxy estradiol (2))	RBA (relative binding affinity) (estrogen receptor; 18 hours)	inhibition of neovascularization and growth of solid tumors in mice (solid tumors)	signs of toxicity at tumor-inhibiting doses (solid tumors; mice)
CCOc1cc2c(cc1O)C(=NNS(=O)(=O)c1ccc(C)cc1)C[C@@H]1[C@@H]2CC[C@]2(C)[C@@H](O)CC[C@@H]12 [Compound 15, 2-Ethoxy-6-Tosylhydrazone-Estra-1,3,5(10)-Triene-3,17β-Diol]	> 40	5.14	6.67	3.45	3.18	12.1	14.9	6.16										
CC(=O)Oc1cc2c(cc1OCC(F)(F)F)[C@H]1CC[C@]3(C)[C@@H](OC(C)=O)CC[C@H]3[C@@H]1CC2=O [Compound 6, 2-(2',2',2'-Trifluoroethoxy)-3,17β-Diacetyloxy-Estra-6-Oxo-1,3,5(10)-Triene]	6	8.7	3.71	5.11	3.52	23.5	15	9.77	3.33	26.5								
CCOc1cc2c(cc1O)CC[C@@H]1[C@@H]2CC[C@]2(C)C(N)CC[C@@H]12 (stereo partly drawn) [Compound 20, 2-Ethoxy-3-Hydroxy-17-α/β-Aminoestra-1,3,5(10)-Triene Hydrochloride]	> 40	10.9	3.15	3.99	1.25	5.24	1.93	3.31	3.61	1.74								
CCOc1cc2c(cc1O)C(=O)C[C@@H]1[C@@H]2CC[C@]2(C)[C@@H](O)CC[C@@H]12 [Compound 10, 2-Ethoxy-6-Oxoestra-1,3,5(10)-Triene-3,17β-Diol]	4.8	0.03	0.02	0.71	0.63	0.18	0.17		0.01	< 0.01	0.13							
CCOc1cc2c(cc1O)C(=NO)C[C@@H]1[C@@H]2CC[C@]2(C)[C@@H](O)CC[C@@H]12 [Compound 11, 2-Ethoxy-6-Hydroximinoestra-1,3,5(10)-Triene-3,17β-Diol]	0.62	< 0.01	< 0.01		< 0.01	< 0.01	< 0.01		< 0.01	< 0.01	0.04	< 0.01	no affinity for the estrogen receptor	< 0.001				
CCOc1cc2c(cc1O)C(=NOC)C[C@@H]1[C@@H]2CC[C@]2(C)[C@@H](O)CC[C@@H]12 [Compound 16, 2-Ethoxy-6-(O-Methyl)hydroximino-Estra-1,3,5(10)-Triene-3,17β-Diol]	0.75	< 0.01	< 0.01		< 0.01	0.26	0.32		< 0.01	0.02	0.24		no affinity for the estrogen receptor	< 0.001				
CCOc1cc2c(cc1O)CC[C@@H]1[C@@H]2CC[C@]2(C)[C@@H](O)CC[C@@H]12 [Compound 2, 2-ethoxy estra-1,3,5(10)-trien-3,17β-diol]	0.91														over three times more active than 2-methoxy estradiol (1)			
CCOc1cc2c(cc1O)[C@@H](O)C[C@@H]1[C@@H]2CC[C@]2(C)[C@@H](O)CC[C@@H]12 [Compound 14, 2-Ethoxyestra-1,3,5(10)-Triene-3,6α,17β-Triol]	2.5		0.35		0.35	0.66	0.71	0.83	0.28	5.39								
CCOc1cc2c(cc1OC(C)=O)C(=O)C[C@@H]1[C@@H]2CC[C@]2(C)[C@@H](OC(C)=O)CC[C@@H]12 [Compound 7, 2-Ethoxy-3,17β-Diacetoxy-6-Oxoestra-1,3,5(10)-triene]	> 40	20	21.1	22.6	23.7	19.8	19.8	19.5	17.7	18.4								
CCOc1cc2c(cc1O)C(=NN)C[C@@H]1[C@@H]2CC[C@]2(C)[C@@H](O)CC[C@@H]12 [Compound 13, 2-Ethoxy-6-Hydrazone-estra-1,3,5(10)-Triene-3,17β-Diol]	15	1.18	2.12	2.76	5.43	16.8	17	4.17	0.88	6.5								
COc1cc2c(cc1O)CC[C@@H]1[C@@H]2CC[C@]2(C)[C@@H](O)CC[C@@H]12 [Compound 1, 2-methoxy estradiol, reference compound]	2.9															0.245	potent inhibitor of neovascularization of solid tumors and inhibits their growth	no apparent signs of toxicity
C[C@]12CC[C@@H]3c4cc(OCC(F)(F)F)c(O)cc4CC[C@H]3[C@@H]1CC[C@@H]2O [Compound 3, 2-(2',2',2'-trifluoroethoxy)estra-3,17β-diol]	1.7																	
